According to publication PMC9966667, “Permeability Assessment of a High-Throughput Mucosal Platform” (Pharmaceutics, 2023):

Experiments:
[1] = PermeaPad + mucus permeability assay (cystic fibrosis mucus model on PermeaPad 96-well plate); format: in vitro ADME; settings: for Effect of mucus on Papp: Papp vs. Papp mucus, significance at p < 0.05; for Effect of mucus on Papp / statistical significance of the difference in permeation with vs without mucus: Student's t-test; for Papp at 5 h: not told, PermeaPad + mucus model, donor 100 or 500 µM in 10 mM PB pH 7.4, 5% DMSO, single timepoint 5 h, mean (±SD), n>=3, read-out: Papp mucus ± SD • 10^6; for permeation in the presence of mucus versus without mucus: PermeaPad + mucus vs PermeaPad; for statistical significance of the difference in permeation with vs without mucus: p < 0.05
Method: The pathological mucus model produced by Bac3Gel Lda. was prepared as previously described. […] The mucin suspension was prepared in mQ water.
Next, 20 µL of the mucus mixture was pipetted into the donor compartment of the PermeaPad plate (i.e., PermeaPad + mucus, from here on). The donor plate was carefully shaken to homogeneously distribute the mucus over the entire surface of the well. This step is also useful to get rid of the air bubbles that can form during the mixing of the mucus reagents. Before running the permeation measurements, the mucus was allowed to crosslink overnight by storing the PermeaPad plate at 4 °C.
(§1) The permeability assay was conducted in the absence (i.e., PermeaPad) and presence (i.e., PermeaPad + mucus) of the pathological mucus model. Stock solutions of drugs were prepared at 10 mg/mL in DMSO; working solutions were prepared by diluting the stocks within soluble concentration ranges (either 100 or 500 µM) in a 10 mM phosphate buffer (PB) (pH 7.4, 5% DMSO). The donor compartments of the PermeaPad plate were then filled with 200 µL of the drug working solution, while the acceptor compartments were filled with 400 µL of PB buffer (5% DMSO). […] (1) Papp=dQ/dt/C0×A where dQ represents the quantity of drug expressed as moles permeated into the acceptor compartment at time t (18.000 s), C0 is the initial concentration in the donor compartment, and A is the area of the PermeaPad membrane (0.15 cm^2).
(§2) The concentration of the drug in each acceptor well was determined using a Varian HPLC equipped with a 410 autosampler and a C18 column (150 × 2 mm, […], 100) and detected on a Varian 320 MS TQ mass spectrometer equipped with an electrospray ionization (ESI) source operating in positive or negative mode. The detector was used in multiple-reaction monitoring (MRM). Mobile phases composed of acetonitrile and water, 0.1% formic acid, or ammonium acetate (5 mM, pH 6.6), were pumped at 200 µL/min, following a gradient program. The injection volume was 5 µL. Quantifications were achieved according to a seven-point calibration curve specific to each compound.
(§3) A minimum of three replicates were performed for each compound, with and without mucus. All the quantitative data are reported as the mean ± standard deviation (SD). Statistical significance was calculated by applying the Student’s t test; a p < 0.05 was considered to be statistically significant and is indicated with asterisks (i.e., * p < 0.05, ** p < 0.01, *** p < 0.001, **** p < 0.0001).

[2] = PermeaPad 96-well plate permeability assay (absence of mucus); format: in vitro ADME; settings: for Papp at 5 h: not told, pH 7.4, PermeaPad without mucus
Method: as §1, §2, §3

[3] = tested on: mucins; set-up: method as in PMID 26169405, PMID 7535039, PMID 33405639; settings: polycationic drugs; cited from earlier work
[4] = donor 100 or 500 µM in 10 mM PB pH 7.4, 5% DMSO, single timepoint 5 h, mean (±SD), n>=3, read-out: Papp ± SD • 10^6
[5] = 5 h, extremes of measured range, trametinib value set because below limit of detection, read-out: apparent permeability (Papp)

Row | Molecule | Effect of mucus on Papp [1] | Papp at 5 h [1] | Papp at 5 h [2, 4] | statistical significance of the difference in permeation with vs without mucus [1] | Papp at 5 h [2, 5] | concentration in the acceptor compartment ([2]; PermeaPad, 5 h, HPLC-ESI-MS) | permeation in the presence of mucus versus without mucus [1] | interaction with mucins [3]
1 | CC(=O)Nc1ccc(O)cc1 [Acetaminophen] | Reduced | 1.77 ×10⁻⁶ cm/s | 4.55 ×10⁻⁶ cm/s |  |  |  |  | 
2 | Nc1nc2c(ncn2COCCO)c(=O)[nH]1 [Acyclovir] | Reduced | 0.83 ×10⁻⁶ cm/s | 2.17 ×10⁻⁶ cm/s |  |  |  |  | 
3 | CCOC(=O)C1=C(COCCN)NC(C)=C(C(=O)OC)C1c1ccccc1Cl (centres unmarked) [Amlodipine] | None | 0.35 ×10⁻⁶ cm/s | 0.66 ×10⁻⁶ cm/s |  |  |  |  | 
4 | CCS(=O)(=O)N1CC(CC#N)(n2cc(-c3ncnc4[nH]ccc34)cn2)C1 [Baricitinib] | Reduced | 0.87 ×10⁻⁶ cm/s | 3.06 ×10⁻⁶ cm/s |  |  |  |  | 
5 | CC(C(=O)O)c1cccc(C(=O)c2ccccc2)c1 (centres unmarked) [Ketoprofen] |  |  |  |  |  |  | higher permeation in the presence of mucus | 
6 | CCn1cc(C(=O)O)c(=O)c2cc(F)c(N3CCNCC3)cc21 [Norfloxacin] | None | 1.61 ×10⁻⁶ cm/s | 1.7 ×10⁻⁶ cm/s |  |  |  |  | 
7 | CO[C@H]1/C=C/O[C@@]2(C)Oc3c(C)c(O)c4c(O)c(c5c(nc6cc(C)ccn65)c4c3C2=O)NC(=O)/C(C)=C\C=C\[C@H](C)[C@H](O)[C@@H](C)[C@@H](O)[C@@H](C)[C@H](OC(C)=O)[C@@H]1C [Rifaximin] | None | 0.08 ×10⁻⁶ cm/s | 0.09 ×10⁻⁶ cm/s |  |  |  |  | 
8 | O=C(Nc1c(Cl)cncc1Cl)c1ccc(OC(F)F)c(OCC2CC2)c1 [Roflumilast] | None |  | 0.01 ×10⁻⁶ cm/s |  | 0.0079 ×10⁻⁶ cm/s |  |  | 
9 | O=C(O)c1ccccc1O [Salicylic acid] | None | 4.89 ×10⁻⁶ cm/s | 2.71 ×10⁻⁶ cm/s | not statistically significant |  |  | higher permeation in the presence of mucus | 
10 | CN(C)[C@@H]1C(O)=C(C(N)=O)C(=O)[C@@]2(O)C(O)=C3C(=O)c4c(O)cccc4[C@@](C)(O)[C@H]3C[C@@H]12 [Tetracycline] | Reduced | 0.2 ×10⁻⁶ cm/s |  |  |  |  |  | 
11 | NC[C@H]1O[C@H](O[C@H]2[C@H](O)[C@@H](O[C@H]3O[C@H](CO)[C@@H](O)[C@H](N)[C@H]3O)[C@H](N)C[C@@H]2N)[C@H](N)C[C@@H]1O [tobramycin] |  |  |  |  |  |  |  | strongly interact with mucins
12 | colistin |  |  |  |  |  |  |  | strongly interact with mucins
13 | polymyxin |  |  |  |  |  |  |  | strongly interact with mucins

Now from value to molecule, other results behind:

Row | Effect of mucus on Papp [1] | Papp at 5 h [1] | Papp at 5 h [2, 4] | statistical significance of the difference in permeation with vs without mucus [1] | Papp at 5 h [2, 5] | concentration in the acceptor compartment ([2]; PermeaPad, 5 h, HPLC-ESI-MS) | Molecule | permeation in the presence of mucus versus without mucus [1] | interaction with mucins [3]
14 | None | 0.13 ×10⁻⁶ cm/s | 0.19 ×10⁻⁶ cm/s |  |  |  | COC(=O)N[C@H](C(=O)N[C@@H](Cc1ccccc1)[C@@H](O)CN(Cc1ccc(-c2ccccn2)cc1)NC(=O)[C@@H](NC(=O)OC)C(C)(C)C)C(C)(C)C [Atazanavir] |  | 
15 | None | 0.17 ×10⁻⁶ cm/s | 0.18 ×10⁻⁶ cm/s |  |  |  | C[C@H]1[C@H](NC(=O)/C(=N\OC(C)(C)C(=O)O)c2csc(N)n2)C(=O)N1S(=O)(=O)O [Aztreonam] |  | 
16 | Reduced | 0.81 ×10⁻⁶ cm/s | 2.16 ×10⁻⁶ cm/s |  |  |  | CN(C)C(=O)COC(=O)Cc1ccc(OC(=O)c2ccc(NC(=N)N)cc2)cc1 [Camostat] |  | 
17 | Increased | 6.18 ×10⁻⁶ cm/s | 5.15 ×10⁻⁶ cm/s |  |  |  | NC(=O)c1nc(F)c[nH]c1=O [Favipiravir] | higher permeation in the presence of mucus | 
18 | None | 1.2 ×10⁻⁶ cm/s | 0.94 ×10⁻⁶ cm/s | not statistically significant |  |  | CC(C)Cc1ccc(C(C)C(=O)O)cc1 (centres unmarked) [Ibuprofen] | higher permeation in the presence of mucus | 
19 | Reduced | 1.11 ×10⁻⁶ cm/s | 1.81 ×10⁻⁶ cm/s |  |  |  | CC(CCc1ccccc1)NCC(O)c1ccc(O)c(C(N)=O)c1 (centres unmarked) [Labetalol] |  | 
20 | Reduced | 0.6 ×10⁻⁶ cm/s | 2.67 ×10⁻⁶ cm/s |  |  |  | CCN(CC)CCOC(=O)c1ccc(N)cc1 [Procaine] |  | 
21 | Reduced | 1.08 ×10⁻⁶ cm/s | 4.26 ×10⁻⁶ cm/s |  |  |  | CC(C)NCC(O)COc1cccc2ccccc12 (centres unmarked) [Propranolol] |  | 
22 | None | 0.71 ×10⁻⁶ cm/s | 0.7 ×10⁻⁶ cm/s |  |  |  | CO[C@H]1/C=C/O[C@@]2(C)Oc3c(C)c(O)c4c(O)c(c(/C=N/N5CCN(C)CC5)c(O)c4c3C2=O)NC(=O)/C(C)=C\C=C\[C@H](C)[C@H](O)[C@@H](C)[C@@H](O)[C@@H](C)[C@H](OC(C)=O)[C@@H]1C [Rifampicin] |  | 
23 | Reduced | 0.64 ×10⁻⁶ cm/s | 2.34 ×10⁻⁶ cm/s |  |  |  | CC(C)(C)NCC(O)c1ccc(O)c(CO)c1 (centres unmarked) [Salbutamol] |  | 
24 | Reduced | 0.01 ×10⁻⁶ cm/s | 0.08 ×10⁻⁶ cm/s |  |  |  | CC(C)(C)NC(=O)[C@@H]1C[C@@H]2CCCC[C@@H]2CN1C[C@@H](O)[C@H](Cc1ccccc1)NC(=O)[C@H](CC(N)=O)NC(=O)c1ccc2ccccc2n1 [Saquinavir] |  | 
25 | None | 0.21 ×10⁻⁶ cm/s | 0.48 ×10⁻⁶ cm/s |  |  |  | C=CC(=O)N1CCN(c2nc(=O)n(-c3c(C)ccnc3C(C)C)c3nc(-c4c(O)cccc4F)c(F)cc23)[C@@H](C)C1 [Sotorasib] |  | 
26 | None |  |  |  | 0.001 ×10⁻⁶ cm/s | below the limit of detection | CC(=O)Nc1cccc(-n2c(=O)n(C3CC3)c(=O)c3c(Nc4ccc(I)cc4F)n(C)c(=O)c(C)c32)c1 [Trametinib] |  | 
